Data taken from publication PMC10470053, “Diverse p120RasGAP interactions with doubly phosphorylated partners EphB4, p190RhoGAP, and Dok1” (The Journal of Biological Chemistry, 2023).
Square brackets hold non-standard residues; d marks the D form. Ends that are not written are not given here. Peptide text beside a SMILES is read from it. pY = N[C@@H](Cc1ccc(OP(=O)(O)O)cc1)C(=O)O

Test system: RasGAP^FL (full-length RasGAP) GAP activity toward H-Ras
Experiment: In vitro GAP assay, single turnover fluorescence-based phosphate sensor
Assay type: biochemical, human
Conditions: 50 μM peptide, 25 nM RasGAP^FL, 0.8 μM GTP-H-Ras, 1 μM phosphate sensor, 20 mM Tris pH 8, 50 mM NaCl; first 10 min after Mg2+; n = 4 to 14, Mann-Whitney
Excerpt: Finally, to probe whether the conformational movements in the SH2-SH3-SH2 region nonetheless impact catalytic activity in vitro, we conducted GAP assays. […] Our SAXS data for RasGAP^232 may provide a basis for how this is achieved: by inducing local changes in 232 conformations upon peptide engagement. Therefore, we purified full-length RasGAP (residues 1–1047, termed RasGAP^FL, Fig. S2G) and assessed activity against purified H-Ras GTPase domain preloaded with GTP (residues 1–167, Fig. S2H) in a single turnover fluorescence-based phosphate sensor assay that monitors phosphate release in real time ([64]). We find that RasGAP^FL activates H-Ras, as expected (Fig. 6) ([61], [62]). […]
Figure 6 In vitro GAP assays.A, GAP assay for full-length RasGAP activation of GTP-loaded H-Ras. […] Initial rates calculated for each reaction using only the first 10 min after addition of Mg^2+, where the phosphate release rate was linear. […]
H-Ras was preloaded with GTP by mixing purified H-Ras^1-167 protein, 10 mM EDTA, and 10-fold excess GTP in 20 mM Tris pH 8, 100 mM NaCl for 1 h at room temperature. […] Fluorescence excitation and emission settings were 430 nm and 450 nm, respectively with a bandwidth of 10 nm, and readings were taken in 1-min intervals. […]

| Molecule | effect of peptide on in vitro GAP activity (initial rate of phosphate release) |
| --- | --- |
| CC[C@H](C)[C@H](NC(=O)[C@H](CCCNC(=N)N)NC(=O)[C@H](CC(C)C)NC(=O)[C@H](CO)NC(=O)[C@H](CC(=O)O)NC(=O)[C@H](CC(C)C)NC(=O)[C@@H]1CCCN1C(=O)[C@H](CCC(=O)O)NC(=O)[C@H](C)NC(=O)[C@H](Cc1ccc(OP(=O)(O)O)cc1)NC(=O)[C@H](CC(C)C)NC(=O)[C@H](C)NC(=O)[C@@H]1CCCN1C(=O)[C@@H]1CCCN1C(=O)[C@H](CO)NC(C)=O)C(=O)N[C@@H](C)C(=O)N1CCC[C@H]1C(=O)N[C@@H](CS)C(=O)N1CCC[C@H]1C(=O)N[C@@H](CO)C(=O)N[C@@H](CCC(N)=O)C(=O)N[C@@H](CC(=O)O)C(=O)N[C@@H](CO)C(=O)N[C@@H](CC(C)C)C(=O)N[C@@H](Cc1ccc(OP(=O)(O)O)cc1)C(=O)N[C@@H](CO)C(=O)N[C@@H](CC(=O)O)C(=O)N1CCC[C@H]1C(=O)N[C@@H](CC(C)C)C(=O)N[C@@H](CC(=O)O)C(=O)N[C@@H](CO)C(=O)N[C@H](C(N)=O)[C@@H](C)O [pYpY Dok1] (Ac-SPPAL[pY]AEPLDSLRIAPCPSQDSL[pY]SDPLDST-NH2) | do not impact GAP activity |
| SD[pY]AEPMDAVVKPRNEEENI[pY]SVPH [pYpY p190RhoGAP-A, Doubly phosphorylated p190RhoGAP-A peptide (pY1087, pY1105)] | do not impact GAP activity |
